These results are taken from PubChem BioAssay AID256 (DTP/NCI, 2004).

The experiment has as its system CD2F1 mice, L1210 leukemia ip, survival T/C. Kind of experiment: NCI In Vivo Anticancer Drug Screen. Data for tumor model L1210 Leukemia (intraperitoneal) in CD2F1 (CDF1) mice. The settings on record: higher = longer survival. Summed up: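 Read-out first: treated-group measurement over vehicle-control measurement, expressed as a ratio. Animals bore a transplanted tumor line and were dosed with compound or vehicle.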

Where [1] appears, read: endpoint: mean survival time, dose: 100.0 mg/kg/injection, schedule: Q01DX009 (ip), vehicle: saline with Tween-80.
The mark [2] stands for this setting: endpoint: mean survival time, dose: 100.0 mg/kg/injection, schedule: Q04DX003 (ip), vehicle: saline with Tween-80.
Setting [3] is: endpoint: mean survival time, dose: 200.0 mg/kg/injection, schedule: Q01DX009 (ip), vehicle: saline with Tween-80.
Where [4] appears, read: endpoint: mean survival time, dose: 200.0 mg/kg/injection, schedule: Q04DX003 (ip), vehicle: saline with Tween-80.
[5] abbreviates: endpoint: mean survival time, dose: 400.0 mg/kg/injection, schedule: Q01DX009 (ip), vehicle: saline with Tween-80.
[6] abbreviates: endpoint: mean survival time, dose: 400.0 mg/kg/injection, schedule: Q04DX003 (ip), vehicle: saline with Tween-80.
Setting [7] is: endpoint: mean survival time, dose: 100.0 mg/kg/injection, schedule: Q01DX001 (ip), vehicle: saline with Tween-80.
[8] abbreviates: endpoint: mean survival time, dose: 200.0 mg/kg/injection, schedule: Q01DX001 (ip), vehicle: saline with Tween-80.
The mark [9] stands for this setting: endpoint: mean survival time, dose: 100.0 mg/kg/injection, schedule: Q04DX002 (ip), vehicle: saline with Tween-80.
Setting [10] is: endpoint: mean survival time, dose: 200.0 mg/kg/injection, schedule: Q04DX002 (ip), vehicle: saline with Tween-80.
[11] abbreviates: endpoint: mean survival time, dose: 400.0 mg/kg/injection, schedule: Q04DX002 (ip), vehicle: saline with Tween-80.
Setting [12] is: endpoint: mean survival time, dose: 50.0 mg/kg/injection, schedule: Q01DX009 (ip), vehicle: saline with Tween-80.
[13] abbreviates: endpoint: mean survival time, dose: 400.0 mg/kg/injection, schedule: Q01DX001 (ip), vehicle: saline with Tween-80.

Each structure is given as a SMILES string. Values joined by “and” are separate entries in the source; they are usually repeats but may differ in a detail not shown here. Equal values may be shown once. Inconclusive results and toxic doses are left out.

In the case of `O=C(c1ccccc1)c1ccc(-c2ccccc2)c(=O)o1`, the T/C under setting [1] is 95 % of control; the T/C under setting [2] was 100 % of control; the T/C under setting [3] was 95 % of control; the T/C under setting [4] is 98 % of control; the T/C under setting [5] is 92 % of control; the T/C under setting [6] is 102 % of control.
As to `NC(CSS(=O)(=O)O)=NCCSS(=O)(=O)O`, the T/C (endpoint: mean survival time, dose: 100.0 mg/kg/injection, schedule: Q04DX003 (ip), vehicle: saline) was 97 % of control and the T/C (endpoint: mean survival time, dose: 200.0 mg/kg/injection, schedule: Q04DX003 (ip), vehicle: saline) was 97 % of control.
Consider `CCCCCCC/C=N/NC(=O)c1ccc[n+](C)c1`, for which the T/C was 97 % of control under setting [7] and 97 % of control under setting [8].
Turning to `O=c1c2ccccc2c2nccc3c4ccccc4n1c32`, the T/C by setting is: under setting [1], 103 % of control; under setting [2], 102 % of control; under setting [3], 105 % of control; under setting [4], 107 % of control; under setting [5], 100 % of control; under setting [6], 107 % of control.
With `CN(C)C(=O)Nc1ccc(Br)cc1`, the T/C runs as follows: under setting [9], 86 % of control; under setting [10], 93 % of control; under setting [11], 93 % of control.
For the compound `O=C(CNC(=O)Nc1cccc([N+](=O)[O-])c1)N/N=C/c1cccc(O)c1`, the T/C reads like this: under setting [12], 92 % of control; under setting [1], 95 % of control; under setting [3], 95 % of control.
On to `COC(=O)CCc1nc2ccccc2c(=O)[nH]1`, for which the T/C was 102 % of control (endpoint: mean survival time, dose: 100.0 mg/kg/injection, schedule: Q04DX003 (ip), vehicle: Klucel (hydroxypropylcellulose) (HPC)); 109 % of control (endpoint: mean survival time, dose: 200.0 mg/kg/injection, schedule: Q04DX003 (ip), vehicle: Klucel (hydroxypropylcellulose) (HPC)); 102 % of control (endpoint: mean survival time, dose: 400.0 mg/kg/injection, schedule: Q04DX003 (ip), vehicle: Klucel (hydroxypropylcellulose) (HPC)).
`COC1CCCC[CH]1[Hg][Br]` (stereo unspecified): the T/C (endpoint: mean survival time, dose: 3.13 mg/kg/injection, schedule: Q01DX009 (ip), vehicle: saline with Tween-80) is 102 % of control.
Regarding `C=CC(=C)CCC=C(C)C`, the T/C was 96 % of control (endpoint: mean survival time, dose: 50.0 mg/kg/injection, schedule: Q01DX009 (ip), vehicle: acetone); 91 % of control (endpoint: mean survival time, dose: 100.0 mg/kg/injection, schedule: Q01DX009 (ip), vehicle: acetone); 96 % of control (endpoint: mean survival time, dose: 200.0 mg/kg/injection, schedule: Q01DX009 (ip), vehicle: acetone).
As for `C=C1CC(=O)N(c2ccc(OC)cc2)C1=O`, the T/C (endpoint: mean survival time, dose: 25.0 mg/kg/injection, schedule: Q04DX003 (ip), vehicle: saline with Tween-80) is 100 % of control; the T/C (endpoint: mean survival time, dose: 50.0 mg/kg/injection, schedule: Q04DX003 (ip), vehicle: saline with Tween-80) is 107 % of control; the T/C under setting [2] is 104 % of control.
As for `COc1ccccc1NC(=O)Oc1ccc(Cl)cc1Cl`, the T/C reads like this: under setting [9], 103 % of control; under setting [10], 95 % of control.
Turning to `O=C(O)c1cc2c3ccccc3ncc2c2ccccc12`, the T/C is 94 % of control under setting [2], 100 % of control under setting [4] and 101 % of control under setting [6].
For `C1CCC(C2CCCC[N-]2)[N-]C1.CC(C)C([NH-])C(=O)O.[Cl][Pt]` (stereo unspecified), the T/C reads like this: (endpoint: median survival time, dose: 10.0 mg/kg/injection, schedule: Q04DX003 (ip), vehicle: saline) 101 % of control; (endpoint: median survival time, dose: 20.0 mg/kg/injection, schedule: Q04DX003 (ip), vehicle: saline) 102 % of control; (endpoint: median survival time, dose: 40.0 mg/kg/injection, schedule: Q04DX003 (ip), vehicle: saline) 100 % of control; (endpoint: median survival time, dose: 80.0 mg/kg/injection, schedule: Q04DX003 (ip), vehicle: saline) 94 % of control and 96 % of control; (endpoint: median survival time, dose: 160.0 mg/kg/injection, schedule: Q04DX003 (ip), vehicle: saline) 97 % of control.
Regarding `Cc1cc(=O)n(C2CCCCC2)c(=NC2CCCCC2)o1`, the T/C was 100 % of control under setting [9], 95 % of control under setting [10] and 95 % of control under setting [11].
As to `O=c1[nH][nH]c(=O)c2c1oc1c(=O)[nH][nH]c(=O)c12`, the T/C (endpoint: mean survival time, dose: 25.0 mg/kg/injection, schedule: Q01DX001 (ip), vehicle: saline with Tween-80) is 104 % of control and the T/C (endpoint: mean survival time, dose: 50.0 mg/kg/injection, schedule: Q01DX001 (ip), vehicle: saline with Tween-80) is 92 % of control.
`CCC(O)C(C)(C)[N+](=O)[O-]` (stereo unspecified): the T/C is 95 % of control (endpoint: mean survival time, dose: 5.0 mg/kg/injection, schedule: Q01DX009 (ip), vehicle: saline); 98 % of control (endpoint: mean survival time, dose: 10.0 mg/kg/injection, schedule: Q01DX009 (ip), vehicle: saline); 98 % of control (endpoint: mean survival time, dose: 20.0 mg/kg/injection, schedule: Q01DX009 (ip), vehicle: saline).
For `NC(=O)N/N=C/c1ccc([N+](=O)[O-])s1`, the T/C was 97 % of control under setting [2], 99 % of control under setting [4] and 106 % of control under setting [6].
For the compound `COc1cc(C)c(NC(C)=O)c([N+](=O)[O-])c1`, the T/C (endpoint: mean survival time, dose: 75.0 mg/kg/injection, schedule: Q01DX001 (ip), vehicle: saline) is 100 % of control; the T/C (endpoint: mean survival time, dose: 150.0 mg/kg/injection, schedule: Q01DX001 (ip), vehicle: saline) is 95 % of control; the T/C (endpoint: mean survival time, dose: 300.0 mg/kg/injection, schedule: Q01DX001 (ip), vehicle: saline) was 95 % of control.
On to `Fc1c(F)c(F)c(-c2c(F)c(F)c(-c3c(F)c(F)c(-c4c(F)c(F)c(F)c(F)c4F)c(F)c3F)c(F)c2F)c(F)c1F`, for which the T/C was 96 % of control under setting [1] and 88 % of control under setting [3].
On to `CC(=O)OCC1OC(n2cnc3c(=S)nc(N)[nH]c32)CC1OC(C)=O` (stereo unspecified), for which the T/C reads like this: (endpoint: mean survival time, dose: 0.63 mg/kg/injection, schedule: Q01DX005 (ip), vehicle: saline with Tween-80) 101 % of control; (endpoint: mean survival time, dose: 1.25 mg/kg/injection, schedule: Q01DX005 (ip), vehicle: saline with Tween-80) 117 % of control; (endpoint: mean survival time, dose: 20.0 mg/kg/injection, schedule: Q01DX005 (ip), vehicle: saline with Tween-80) 156 % of control.
With `CCOC(CC)C(O)(c1ccc(N(C)C)cc1)c1ccc(N(C)C)cc1` (stereo unspecified), the T/C reads like this: under setting [2], 97 % of control; under setting [4], 102 % of control; under setting [6], 94 % of control.
Turning to `COc1ccc(N=C(C)C2C(=O)c3ccccc3C2=O)cc1`, the T/C (endpoint: median survival time, dose: 50.0 mg/kg/injection, schedule: Q01DX005 (ip), vehicle: DMSO) was 101 % of control; the T/C (endpoint: median survival time, dose: 100.0 mg/kg/injection, schedule: Q01DX005 (ip), vehicle: DMSO) is 101 % of control; the T/C (endpoint: median survival time, dose: 200.0 mg/kg/injection, schedule: Q01DX005 (ip), vehicle: DMSO) was 103 % of control; the T/C (endpoint: median survival time, dose: 400.0 mg/kg/injection, schedule: Q01DX005 (ip), vehicle: DMSO) was 103 % of control; the T/C (endpoint: median survival time, dose: 800.0 mg/kg/injection, schedule: Q01DX005 (ip), vehicle: DMSO) was 101 % of control.
Turning to `NC(=O)CCc1ccnc2ccccc12`, the T/C runs as follows: under setting [9], 96 % of control; under setting [10], 92 % of control.
Take `CC(C)(C)NC(=O)CCC(CC(=O)NC(C)(C)C)OCc1ccccc1` (stereo unspecified): the T/C under setting [12] was 100 % of control; the T/C under setting [1] was 104 % of control; the T/C under setting [2] was 101 % of control; the T/C under setting [3] is 102 % of control; the T/C under setting [4] was 106 % of control; the T/C under setting [5] was 93 % of control. Besides, under setting [6], the T/C was 93 % of control.
Turning to `CCCCN(C)N=Nc1cccnc1`, the T/C is, setting by setting: (endpoint: mean survival time, dose: 13.0 mg/kg/injection, schedule: Q01DX009 (ip), vehicle: saline) 90 % of control; (endpoint: mean survival time, dose: 19.0 mg/kg/injection, schedule: Q01DX009 (ip), vehicle: saline) 109 % of control; (endpoint: mean survival time, dose: 28.0 mg/kg/injection, schedule: Q01DX009 (ip), vehicle: saline) 109 % of control; (endpoint: mean survival time, dose: 42.0 mg/kg/injection, schedule: Q01DX009 (ip), vehicle: saline) 92 % of control.
With `O=S(=O)(c1ccc(Br)cc1)c1ccc(Br)cc1`, the T/C reads like this: under setting [7], 112 % of control; under setting [8], 102 % of control; under setting [13], 97 % of control.
Turning to `CCC(=O)O[C@H]1CC[C@H]2[C@@H]3[C@@H](C)CC4=CC(=O)CC[C@]4(C)[C@H]3CC[C@]12C`, the T/C is, setting by setting: under setting [7], 91 % of control; under setting [8], 94 % of control; under setting [13], 94 % of control.
As to `NNC(=O)C1C2CCCCC21` (stereo unspecified), the T/C (endpoint: mean survival time, dose: 25.0 mg/kg/injection, schedule: Q01DX009 (ip), vehicle: saline with Tween-80) is 94 % of control; the T/C under setting [12] was 97 % of control; the T/C under setting [1] was 97 % of control.
